From paper PMC9477730, “Structures and mechanism of the plant PIN-FORMED auxin transporter” (Nature, 2022) come the findings set out here.

Series [1] addresses T1, PIN8 (Arabidopsis thaliana, UniProt Q9LFP6).
T1 construct: full-length, tag-free; model residues 1–164 and 206–367, homodimer
T1 sequence (Q9LFP6 1-367): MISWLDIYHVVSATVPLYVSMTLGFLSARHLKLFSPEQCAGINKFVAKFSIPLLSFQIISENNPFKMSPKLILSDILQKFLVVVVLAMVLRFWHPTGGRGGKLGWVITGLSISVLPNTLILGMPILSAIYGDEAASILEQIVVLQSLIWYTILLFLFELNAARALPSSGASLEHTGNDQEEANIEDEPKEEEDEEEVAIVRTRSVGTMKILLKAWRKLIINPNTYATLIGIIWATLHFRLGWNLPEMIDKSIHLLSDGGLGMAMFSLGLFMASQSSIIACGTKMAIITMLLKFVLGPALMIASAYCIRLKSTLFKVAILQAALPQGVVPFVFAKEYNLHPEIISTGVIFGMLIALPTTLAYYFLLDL
The experiment in a line: cryo-EM structure at […] Å (inward-open); Ki from SSM electrophysiology on proteoliposomes. Type of series: biochemical.

For series [2], the target named is T1, PIN8. Kind of series: cryo-EM structure at […] Å (outward-open); apparent Kd by SSM electrophysiology competition with NPA binding current.
Series [3] concerns the molecule itself. The experiment in a line: cryo-EM structure; purified tag-free PIN8 reconstituted in peptidisc; apo (2.9 Å), with 15 mM IAA (3.2 Å) and with 2 mM NPA (3.4 Å); C2 symmetry imposed, parallel C1 refinement showed no differences between the two monomers.

As a reminder, the Ki is a dissociation constant, usually derived from enzyme kinetics or from competition with a known ligand. Lower therefore signals higher affinity. In general, stoichiometry N refers to the number of molecules, sites or subunits per partner or assembly.

The molecule `O=C(O)c1ccccc1C(=O)Nc1cccc2ccccc12` [NPA, naphthylphthalamic acid] returned a Ki in series [1] of 1.9 µM.
Consider `O=C(O)Cc1c[nH]c2ccccc12` [IAA, Indole-3-acetic acid], for which the Kd in series [2] is 39.9 µM.

B1: Arabidopsis thaliana PIN8 (PIN-FORMED 8 auxin transporter) (natural protein, UniProt Q9LFP6 1-367, looked up)
chain: MISWLDIYHVVSATVPLYVSMTLGFLSARHLKLFSPEQCAGINKFVAKFSIPLLSFQIISENNPFKMSPKLILSDILQKFLVVVVLAMVLRFWHPTGGRGGKLGWVITGLSISVLPNTLILGMPILSAIYGDEAASILEQIVVLQSLIWYTILLFLFELNAARALPSSGASLEHTGNDQEEANIEDEPKEEEDEEEVAIVRTRSVGTMKILLKAWRKLIINPNTYATLIGIIWATLHFRLGWNLPEMIDKSIHLLSDGGLGMAMFSLGLFMASQSSIIACGTKMAIITMLLKFVLGPALMIASAYCIRLKSTLFKVAILQAALPQGVVPFVFAKEYNLHPEIISTGVIFGMLIALPTTLAYYFLLDL
notes: PIN8, Arabidopsis thaliana, UniProt Q9LFP6; the PIN8 gene cloned in a p423_GAL1-based plasmid; final models include residues 1-164 and 206-367 of 367 residues total; the cytosolic loop 165-205 is in the protein but not visible in the maps; also called AtPIN8; apo-PIN8; source: S. cerevisiae strain DSY-5, purified (Ni-NTA, TEV cleavage, SEC); in peptidisc or in LMNG detergent
In the case of B1, the “stoichiometry N” value in series [3] was 2.
